Columns and labels:
[1] = tested on: LNCaP cells, secreted PSA; assay: PSA production and secretion study in LNCaP cells (Example 6, PSA ELISA); type: cell-based, human; conditions: 0.1 nM DHT, 120 hours, versus 5% CSS media alone
Protocol: A human hormone sensitive prostate cancer cell line, LNCaP (ATCC), was exposed to a polypeptide as described in Example 1. The effects of the polypeptide on the production and secretion of the prostate specific antigen, PSA, was then assessed.
The human prostate cancer cell line, LNCaP was obtained from American Type Tissue Collection (ATCC) and was routinely cultured in growth medium containing phenol red RPMI 1640 (Invitrogen, Auckland, New Zealand) supplemented with 10% fetal bovine serum (FBS, 15 GIBCO) and 1% antibiotic/antimycotic mixture (Invitrogen, Auckland, New Zealand). Cells were maintained at 37° C. in 5% CO2. Dilutions were made for the polypeptide (20 ng/ml) in 5% charcoal strip serum (CSS, HyClone) for in vitro experiments.
3×10^3 LNCaP cells were plated per well in quadruplicate in a Falcon 96-well plate and allowed to attach overnight at 5% CO2/37° C. in growth medium (as indicated above). The medium was replaced with fresh complete growth medium after 36 hours. […] After 120 hours in culture, cell culture media was collected from each well and PSA reading was measured in duplicate for each well. Human PSA was measured according to the manufacturers methodology using the PSA ELISA from Diagnostic Systems Laboratories (cat number: DSL-10-9700).
Data are presented as means unless otherwise indicated. Error bars represent the 95% confidence intervals.

[2] = tested on: LNCaP cells, secreted PSA; assay: PSA production and secretion study in LNCaP cells with T and DHT (Example 7, PSA ELISA); type: cell-based, human; conditions: 0.1 nM androgen, 120 hours, versus 5% CSS media alone, mean of 6 wells
Protocol: The effects of the polypeptide on the production and secretion of the prostate specific antigen, PSA, was then assessed.
The human prostate cancer cell line, LNCaP was obtained from American Type Tissue Collection (ATCC) and was routinely cultured in growth medium containing phenol red RPMI 1640 (Invitrogen, Auckland, New Zealand) supplemented with 10% fetal bovine serum (FBS, GIBCO) and 1% antibiotic/antimycotic mixture (Invitrogen, Auckland, New Zealand). Cells were maintained at 37° C. in 5% CO2. Dilutions were made for the polypeptide (20 ng/ml) in 5% charcoal strip serum (CSS, HyClone) for in vitro experiments.
3×10^3 LNCaP cells were plated per well in quadruplicate in a Falcon 96-well plate and allowed to attach overnight at 5% CO2/37° C. in growth medium (as indicated above). The medium was replaced with fresh complete growth medium after 36 hours. […] After 120 hours in culture, cell culture media was collected from each well and a PSA reading was measured in duplicate for each well. Human PSA was measured according to the manufacturers methodology using the PSA ELISA from Diagnostic Systems Laboratories (Cat number: DSL-10-9700).
Data are presented as means unless otherwise indicated.

albumin = albumin (Homo sapiens, UniProt P02768); conditions: serum, men; cited from earlier work
[3] = biological target: T1, sex hormone binding globulin (SHBG) (Homo sapiens, UniProt P04278); conditions: serum, men; cited from earlier work
T1 sequence (P04278 30-402): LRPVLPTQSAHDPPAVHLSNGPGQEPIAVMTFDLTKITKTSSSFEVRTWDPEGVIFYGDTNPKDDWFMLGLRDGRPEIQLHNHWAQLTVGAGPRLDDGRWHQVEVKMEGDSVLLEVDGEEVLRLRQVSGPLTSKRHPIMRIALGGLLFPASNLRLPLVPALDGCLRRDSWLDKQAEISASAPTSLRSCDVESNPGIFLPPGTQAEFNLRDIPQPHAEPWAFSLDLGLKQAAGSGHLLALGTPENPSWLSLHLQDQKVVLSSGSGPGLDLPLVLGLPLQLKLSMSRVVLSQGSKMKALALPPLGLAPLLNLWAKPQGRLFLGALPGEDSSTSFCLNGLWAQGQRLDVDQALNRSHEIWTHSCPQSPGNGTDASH

LNCaP cells = assay: In vitro growth proliferation study of LNCaP cells, calcein fluorescence assay; type: cell-based, human; conditions: nilutamide 0.1 μM, 5 days (120 hours), mean of six wells
Protocol: A human hormone sensitive prostate cancer cell line, LNCaP1 was exposed to the AR-LBD-IgG1 FC fusion protein as described in Example 1. The effects of the polypeptide on the growth and proliferation of the cells was then assessed.
In addition, LNCaP cells were also cultured in the presence of the non-steroidal antiandrogen nilutamide
The human prostate cancer cell line, LNCaP was obtained from American Type Tissue Collection (ATCC) and was routinely cultured in growth medium containing phenol red RPM1 1640 (Invitrogen, Auckland, New Zealand) supplemented with 10% fetal bovine serum (FBS1 G1BCO) and 1% antibiotic/antimycotic miyture (Invitrogen, Auckland, New Zealand). Cells were maintained at 37° C. in 5% CO2.
2×10^3 LNCaP cells were plated per well in a Falcon 96-well plate in 5% CO2/37° C. in growth medium in growth medium containing phenol red RPMI 1640 (Invitrogen, Auckland, New Zealand) supplemented with 10% fetal bovine serum (FBS, G1BCO) and 1% antibiotic/antimycotic mixture (Invitrogen, Auckland, New Zealand). Cells were treated with either AR-LBD IgG1 Fc fusion protein (12 ng/ml ) or IgG1 Fc control protein (12 ng/ml). […] Calcein positive cells were detected using a FLUOstar OPTIMA plate reader (BMG Labtech, Victoria, Australia). […]

Chain of albumin (P02768 25-609): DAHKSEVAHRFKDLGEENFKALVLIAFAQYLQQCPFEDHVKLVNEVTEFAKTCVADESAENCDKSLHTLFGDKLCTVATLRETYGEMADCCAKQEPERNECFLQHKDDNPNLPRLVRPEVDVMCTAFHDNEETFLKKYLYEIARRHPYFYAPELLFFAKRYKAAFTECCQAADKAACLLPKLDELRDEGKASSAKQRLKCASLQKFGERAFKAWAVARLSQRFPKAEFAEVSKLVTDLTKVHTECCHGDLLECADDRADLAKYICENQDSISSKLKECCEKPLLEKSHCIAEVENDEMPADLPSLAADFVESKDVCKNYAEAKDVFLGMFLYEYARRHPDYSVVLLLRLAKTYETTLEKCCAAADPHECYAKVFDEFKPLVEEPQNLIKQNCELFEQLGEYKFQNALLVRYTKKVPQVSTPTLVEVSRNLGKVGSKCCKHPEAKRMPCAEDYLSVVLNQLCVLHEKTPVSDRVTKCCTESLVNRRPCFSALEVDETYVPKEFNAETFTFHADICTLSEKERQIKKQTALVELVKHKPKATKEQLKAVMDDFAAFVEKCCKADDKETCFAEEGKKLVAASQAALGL

SMILES	effect of androgen on secreted PSA [1]	effect of androgen on secreted PSA [2]	association constant (Ka) with albumin (albumin)	association constant (Ka) with SHBG [3]	reduction of prostate cancer cell proliferation (LNCaP cells) [%]
C[C@]12CCC(=O)C[C@@H]1CC[C@@H]1[C@@H]2CC[C@]2(C)[C@@H](O)CC[C@@H]12 [DHT, dihydrotestosterone]	significantly boost production of secreted PSA	strongly boost production of secreted PSA			
C[C@]12CC[C@H]3[C@@H](CCC4=CC(=O)CC[C@@]43C)[C@@H]1CC[C@@H]2O [Testosterone, testosterone]		clearly increase production of PSA	about 3×10^4 L/mol	about 1×10^9 L/mol	
CC1(C)NC(=O)N(c2ccc([N+](=O)[O-])c(C(F)(F)F)c2)C1=O [nilutamide]					80

Reference: patent US20130064821A1, “METHODS AND COMPOSITIONS FOR TREATING PROSTATE CANCER” (priority 2007, published 2013)
